Results as given in US9682060B2, “Small molecules that induce intrinsic pathway apoptosis” (The Board of Trustees of the University of Illinois, priority 2015, dated 2017).

Key:
Type in all cases: cell-based
HL-60 = test: Raptinal toxicity, 24 hour IC50 (MTS assay for suspension cells); settings: HL-60 (Human Leukemia); 24 hour incubation; mean ± SD
Experimental: (§1) MTS Assay for Suspension Cells.
(§2) Serial dilutions of compound in 100% DMSO were added in triplicate (2 μL to each well) to empty wells of a 96-well plate. Suspension cells (HL-60, U-937, SKW 6.4, Jurkat W T, Jurkat CASP8^−/−, Jurkat FADD^−/−, Jurkat Bcl-2) cells in RPMI 1640 media were added to 96-well plates (198 μL containing 4×10^4 cells) and the cells incubated for 24 hours.

U-937 = test: as above; settings: U-937 (Human Lymphoma); 24 hour incubation; mean ± SD
Experimental: as §1, §2

SKW 6.4 = test: as above; settings: SKW 6.4 (Human Lymphoma); 24 hour incubation; mean ± SD
Experimental: as §1, §2

Jurkat = test: as above; settings: Jurkat (Human Leukemia); 24 hour incubation; mean ± SD
Experimental: as §1, §2

[1] = system: various cancer and non-cancerous cell lines; test: 24 hour IC50 across various cancer and non-cancerous cell lines; settings: various cancer and non-cancerous cell lines (Table 1, FIG. 4D)
Experimental: as §1, §2
(§3) Sulforhodamine B Assay for Adherent Cells.
Serial dilutions of compound in 100% DMSO were added in triplicate (2 μL to each well) to empty wells of a 96-well plate. Adherent cells (3T3, Hs888Lu, MCF-7, HeLa, WT-MEF, 4T1, B16-F10, SK-MEL-5, MIA PaCa2, BT-549, MDA-MB-436, 143B, HOS, H460, H1993) cells were added to each well (5×10^3 cells in 198 μL of RPMI 1640, DMEM or EMEM media). The plates were incubated for 24 hours. The media was removed from the plate and ice-cold trichloroacetic acid (100 μL of 10% w/v trichloroacetic acid) was added to the plates which were then incubated at 4° C. overnight to fix the cells. […] The bound dye was released by the addition of unbuffered Tris-base (200 μL of 10 mM solution) and after a 30 min incubation at room temperature the absorbance at 510 nm was measured (Molecular Devices SpectraMax Plus 384 plate reader). The mean IC50 values and standard deviations were determined from three independent experiments.

B16-F10 = test: Raptinal toxicity, 24 hour IC50 (sulforhodamine B assay for adherent cells); settings: B16-F10 (Mouse Melanoma); 24 hour incubation; mean ± SD
Experimental: as §3
(§4) Serial dilutions of compound in 100% DMSO were added in triplicate (2 μL to each well) to empty wells of a 96-well plate. Adherent cells (3T3, Hs888Lu, MCF-7, HeLa, WT-MEF, 4T1, B16-F10, SK-MEL-5, MIA PaCa2, BT-549, MDA-MB-436, 143B, HOS, H460, H1993) cells were added to each well (5×10^3 cells in 198 μL of RPMI 1640, DMEM or EMEM media). The plates were incubated for 24 hours. The media was removed from the plate and ice-cold trichloroacetic acid (100 μL of 10% w/v trichloroacetic acid) was added to the plates which were then incubated at 4° C. overnight to fix the cells. The trichloroacetic acid was removed and the wells washed with 200 μL of de-ionized water 5 times. Sulforhodamine B (200 μL of 0.04% sodium salt dissolved in 1% acetic acid) was added to each well and the plates incubated at room temperature for 30 min. Excess sulforhodamine B was removed by washing the plates 5 times with 1% acetic acid. The bound dye was released by the addition of unbuffered Tris-base (200 μL of 10 mM solution) and after a 30 min incubation at room temperature the absorbance at 510 nm was measured (Molecular Devices SpectraMax Plus 384 plate reader). The mean IC50 values and standard deviations were determined from three independent experiments.

143B = test: as above; settings: 143B (Human Osteosarcoma); 24 hour incubation; mean ± SD
Experimental: as §3, §4

H460 = test: as above; settings: NCI-H460; H460 (Human Lung Cancer); 24 hour incubation; mean ± SD
Experimental: as §3, §4

HeLa = test: as above; settings: HeLa (Human Cervical Cancer); 24 hour incubation; mean ± SD
Experimental: as §3, §4

4T1 = test: as above; settings: 4T1 (Mouse Breast Cancer); 24 hour incubation; mean ± SD
Experimental: as §3, §4

MDA-MB-436 = test: as above; settings: MDA-MB-436 (Human Breast Cancer); 24 hour incubation; mean ± SD
Experimental: as §3, §4

MCF-7 = test: as above; settings: MCF7; MCF-7 (Human Breast Cancer); 24 hour incubation; mean ± SD
Experimental: as §3, §4

H1993 = test: as above; settings: NCI-H1993; H1993 (Human Lung Cancer); 24 hour incubation; mean ± SD
Experimental: as §3, §4

WT-MEF = test: as above; settings: Fibroblast; WT-MEF (Mouse Embryonic Fibroblasts); 24 hour incubation; mean ± SD
Experimental: as §3, §4

SK-MEL-5 = test: as above; settings: SK-MEL-5 (Human Melanoma); 24 hour incubation; mean ± SD
Experimental: as §3, §4

MIA PaCa-2 = test: as above; settings: MIA PaCa-2 (Human Pancreatic Cancer); 24 hour incubation; mean ± SD
Experimental: as §3, §4

3T3 = test: as above; settings: NIH3T3; 3T3 (Mouse Embryonic Fibroblasts); 24 hour incubation; mean ± SD
Experimental: as §3, §4

BT-549 = test: as above; settings: BT-549 (Human Breast Cancer); 24 hour incubation; mean ± SD
Experimental: as §3, §4

Hs888Lu = test: as above; settings: Hs888Lu (Human lung fibroblast); 24 hour incubation; mean ± SD
Experimental: as §3, §4

HOS = test: as above; settings: HOS (Human Osteosarcoma); 24 hour incubation; mean ± SD
Experimental: as §3, §4

O=CC1(C2(C=O)c3ccccc3-c3ccccc32)c2ccccc2-c2ccccc21 [Raptinal, [9,9′]bifluorenyl-9,9′-dicarbaldehyde]
IC50 (HL-60): 2100 ± 1400 nM | IC50 (U-937): 700 ± 300 nM | IC50 (SKW 6.4): 1100 ± 100 nM | IC50 (Jurkat): 2700 ± 900 nM | IC50 [1]: 700 to 3400 nM | IC50 (B16-F10): 1600 ± 200 nM | IC50 (143B): 1200 ± 500 nM | IC50 (H460): 1100 ± 100 nM | IC50 (HeLa): 600 ± 400 nM | IC50 (4T1): 1000 ± 200 nM | IC50 (MDA-MB-436): 1100 ± 100 nM | IC50 (MCF-7): 3400 ± 100 nM | IC50 (H1993): 1200 ± 100 nM | IC50 (WT-MEF): 2400 ± 700 nM | IC50 (SK-MEL-5): 700 ± 100 nM | IC50 (MIA PaCa-2): 1900 ± 800 nM | IC50 (3T3): 1000 ± 200 nM | IC50 (BT-549): 1300 ± 400 nM | IC50 (Hs888Lu): 1700 ± 100 nM | IC50 (HOS): 1000 ± 100 nM
